The test has as its system CD4+ T cells. The class given is cell-based, human. Particulars: all cases versus controls; […].

Turning to “NP17–31: nucleoprotein epitope, PR8 specific (GERQNATEIRASVGK)”, the “Tetramer-positive CD4+ T cells in T1N cases versus DQ0602 controls” value is “significant overabundance”. With “NP261–275: nucleoprotein epitope shared between A/California/07/2009 and PR8 (RSALILRGSVAHKSC; UniProt P03466 261-275, looked up, fragment)” the entry was “little to no significant differences”.
